In patent publication US4760136A, “Chartreusin derivatives and salts thereof” (Ishihara Sangyo Kaisha, Ltd., priority 1984, dated 1988):

Assays:
P-388 leukemia cells = experiment: Antitumor activity: P-388 leukemia cells inoculated intraperitoneally, drug administered intravenously, BDF1 mice; type: in vivo; conditions: Mus musculus, P388, iv, BDF1 mice, P-388 i.p., read-out: T/C (%) of MST; for response vs control in vivo at 20 mg/kg: dose b: 20 mg/kg × 3, i.v. on days 1, 5 and 9; for response vs control in vivo at 40 mg/kg: dose c: 40 mg/kg × 3, i.v. on days 1, 5 and 9; for response vs control in vivo at 80 mg/kg: dose f: 80 mg/kg × 3, i.v. on days 1, 5 and 9
Experimental: Into BDF1 mice were inoculated intraperitoneally P-388 leukemia cells at a rate of 1×10^6 cells/mouse, and each drug to be tested was administered intravenously on the first, fifth and ninth days after the inoculation. […] The drugs were as follows solutions prepared by adding physiological saline to each of compound Nos. 8, 9, 10, 11, 17, 34, 42, 59, 80 and 134; suspensions prepared by dispersing each of compound Nos. 41, 78, 98, 100, 130, 191, 212, 213, 215, 227 and 230 to 232 and a small amount of sodium carboxymethyl cellulose (Na.CMC) in physiological saline, […]

[1] = Acute toxicity, intravenous (once), ddY mice; type: in vivo; conditions: mouse, in vivo, iv, formulated per Preparation Example
Description: In Table 7 are shown acute toxicity values (LD50, mg/kg) in ddY mice in the case of intravenously administering (once) each of the compounds of this invention in the form of preparations shown in the Preparation Examples shown in Table 7.

## COC1C(O)C(C)OC(OC2C(Oc3cccc4c(OC(=O)CN(C)C(=O)C(F)(F)F)c5c(=O)oc6ccc(C)c7c(=O)oc(c34)c5c67)OC(C)C3OC(c4ccccc4)OC32)C1O (stereo not shown) [Compound No. 25]
P-388 leukemia cells
  response vs control in vivo at 20 mg/kg: 212%
[1]
  LD50: ≥ 40 mg/kg

## COC1C(O)C(C)OC(OC2C(Oc3cccc4c(OC(=O)C(C)CNC(=O)C(F)(F)F)c5c(=O)oc6ccc(C)c7c(=O)oc(c34)c5c67)OC(C)C3OC(c4cccc(C(F)(F)F)c4)OC32)C1O (stereo not shown) [Compound No. 30]
P-388 leukemia cells
  response vs control in vivo at 40 mg/kg: 171%
  response vs control in vivo at 80 mg/kg: 257%
[1]
  LD50: ≥ 80 mg/kg

## COC1C(O)C(C)OC(OC2C(Oc3cccc4c(OC(=O)CCNC(=O)C(F)(F)F)c5c(=O)oc6ccc(C)c7c(=O)oc(c34)c5c67)OC(C)C3OC(c4cccc(Br)c4)OC32)C1O (stereo not shown) [Compound No. 31]
P-388 leukemia cells
  response vs control in vivo at 40 mg/kg: 171%
  response vs control in vivo at 80 mg/kg: 238%
[1]
  LD50: ≥ 80 mg/kg

## COC1C(O)C(C)OC(OC2C(Oc3cccc4c(OC(=O)CCN5CCCC5)c5c(=O)oc6ccc(C)c7c(=O)oc(c34)c5c67)OC(C)C3OC(c4cccc(F)c4)OC32)C1O (stereo not drawn) [Compound No. 34, 6-O-(β-1-pyrrolidinyl-propionyl)-3',4'-O-(m-fluorobenzylidene)-chartreusin phosphate]
P-388 leukemia cells
  response vs control in vivo at 40 mg/kg: 140%
[1]
  LD50: ≥ 30 mg/kg

## COC1C(O)C(C)OC(OC2C(Oc3cccc4c(OC(=O)CCNC(C)=O)c5c(=O)oc6ccc(C)c7c(=O)oc(c34)c5c67)OC(C)C3OC(c4ccccc4)OC32)C1O (stereo not shown) [Compound No. 38]
P-388 leukemia cells
  response vs control in vivo at 20 mg/kg: 203%
[1]
  LD50: ≥ 40 mg/kg

## COC1C(O)C(C)OC(OC2C(Oc3cccc4c(OC(=O)CC(C)NC(=O)C(F)(F)F)c5c(=O)oc6ccc(C)c7c(=O)oc(c34)c5c67)OC(C)C3OC(c4ccccc4)OC32)C1O (stereo not shown) [Compound No. 39]
P-388 leukemia cells
  response vs control in vivo at 20 mg/kg: 165%
  response vs control in vivo at 40 mg/kg: 214%
[1]
  LD50: ≥ 40 mg/kg

## COC1C(O)C(C)OC(OC2C(Oc3cccc4c(OC(=O)CCCCNC(=O)C(F)(F)F)c5c(=O)oc6ccc(C)c7c(=O)oc(c34)c5c67)OC(C)C3OC(c4ccccc4)OC32)C1O (stereo not shown) [Compound No. 43]
P-388 leukemia cells
  response vs control in vivo at 20 mg/kg: 226%
[1]
  LD50: ≥ 40 mg/kg

## COC1C(O)C(C)OC(OC2C(Oc3cccc4c(OC(=O)CCNC=O)c5c(=O)oc6ccc(C)c7c(=O)oc(c34)c5c67)OC(C)C3OC(c4cccc(F)c4)OC32)C1O (stereo not shown) [Compound No. 46]
P-388 leukemia cells
  response vs control in vivo at 40 mg/kg: 157%
  response vs control in vivo at 80 mg/kg: 210%
[1]
  LD50: ≥ 80 mg/kg

## COC1C(O)C(C)OC(OC2C(Oc3cccc4c(OC(=O)CCNC(=O)c5ccccc5)c5c(=O)oc6ccc(C)c7c(=O)oc(c34)c5c67)OC(C)C3OC(c4cccc(F)c4)OC32)C1O (stereo not drawn) [Compound No. 47, 6-O-(N-benzoyl-β-alanyl)-3',4'-O-(m-fluorobenzylidene)-chartreusin]
P-388 leukemia cells
  response vs control in vivo at 40 mg/kg: 150%
  response vs control in vivo at 80 mg/kg: 210%
[1]
  LD50: ≥ 80 mg/kg

## COC1C(O)C(C)OC(OC2C(Oc3cccc4c(OC(=O)CCNC=O)c5c(=O)oc6ccc(C)c7c(=O)oc(c34)c5c67)OC(C)C3OC(C)(C)OC32)C1O (stereo not drawn) [Compound No. 48, 6-O-(N-formyl-β-alanyl)-3',4'-O-isopropylidene-chartreusin]
P-388 leukemia cells
  response vs control in vivo at 80 mg/kg: 172%
[1]
  LD50: ≥ 120 mg/kg

## COC1C(O)C(C)OC(OC2C(Oc3cccc4c(OC(=O)CCNC(=O)C(F)(F)F)c5c(=O)oc6ccc(C)c7c(=O)oc(c34)c5c67)OC(C)C3OC(C)(C)OC32)C1O (stereo not drawn) [Compound No. 49, 6-O-(N-Trifluoroacetyl-β-Alanyl)-3',4'-O-Isopropylidene-Chartreusin]
P-388 leukemia cells
  response vs control in vivo at 80 mg/kg: 207%
[1]
  LD50: ≥ 150 mg/kg

## COC1C(O)C(C)OC(OC2C(Oc3cccc4c(OC(=O)CCNC(=O)c5ccccc5)c5c(=O)oc6ccc(C)c7c(=O)oc(c34)c5c67)OC(C)C3OC(C)(C)OC32)C1O (stereo not shown) [Compound No. 50]
P-388 leukemia cells; dose e: 60 mg/kg × 3, i.v. on days 1, 5 and 9
  response vs control in vivo at 60 mg/kg: 155%
[1]
  LD50: ≥ 100 mg/kg

## COC1C(O)C(C)OC(OC2C(Oc3cccc4c(OC(=O)CC(C)NC(=O)C(F)(F)F)c5c(=O)oc6ccc(C)c7c(=O)oc(c34)c5c67)OC(C)C3OC(C)(C)OC32)C1O (stereo not shown) [Compound No. 51]
P-388 leukemia cells
  response vs control in vivo at 40 mg/kg: 136%
  response vs control in vivo at 80 mg/kg: 207%
[1]
  LD50: ≥ 100 mg/kg

## COC1C(O)C(C)OC(OC2C(Oc3cccc4c(OC(=O)CCNC=O)c5c(=O)oc6ccc(C)c7c(=O)oc(c34)c5c67)OC(C)C3OC(c4cccc(C(F)(F)F)c4)OC32)C1O (stereo not shown) [Compound No. 52]
P-388 leukemia cells
  response vs control in vivo at 40 mg/kg: 162%
  response vs control in vivo at 80 mg/kg: 203%
[1]
  LD50: ≥ 80 mg/kg

## COC1C(O)C(C)OC(OC2C(Oc3cccc4c(OC(=O)CCNC(C)=O)c5c(=O)oc6ccc(C)c7c(=O)oc(c34)c5c67)OC(C)C3OC(c4cccc(C(F)(F)F)c4)OC32)C1O (stereo not shown) [Compound No. 53]
P-388 leukemia cells
  response vs control in vivo at 40 mg/kg: 165%
  response vs control in vivo at 80 mg/kg: 239%
[1]
  LD50: ≥ 80 mg/kg

## COC1C(O)C(C)OC(OC2C(Oc3cccc4c(OC(=O)CCNC=O)c5c(=O)oc6ccc(C)c7c(=O)oc(c34)c5c67)OC(C)C3OC(c4cccc(Br)c4)OC32)C1O (stereo not shown) [Compound No. 54]
P-388 leukemia cells
  response vs control in vivo at 40 mg/kg: 144%
  response vs control in vivo at 80 mg/kg: 208%
[1]
  LD50: ≥ 80 mg/kg

## COC1C(O)C(C)OC(OC2C(Oc3cccc4c(OC(=O)CCNC=O)c5c(=O)oc6ccc(C)c7c(=O)oc(c34)c5c67)OC(C)C3OC(c4ccccc4C)OC32)C1O (stereo not shown) [Compound No. 55]
P-388 leukemia cells
  response vs control in vivo at 40 mg/kg: 162%
[1]
  LD50: ≥ 40 mg/kg

## COC1C(O)C(C)OC(OC2C(Oc3cccc4c(OC(=O)CCNC(=O)C(Cl)(Cl)Cl)c5c(=O)oc6ccc(C)c7c(=O)oc(c34)c5c67)OC(C)C3OC(c4cccc(Br)c4)OC32)C1O (stereo not shown) [Compound No. 56]
P-388 leukemia cells
  response vs control in vivo at 40 mg/kg: 165%
  response vs control in vivo at 80 mg/kg: 219%
[1]
  LD50: ≥ 80 mg/kg

## COC1C(O)C(C)OC(OC2C(Oc3cccc4c(OC(=O)CCNC=O)c5c(=O)oc6ccc(C)c7c(=O)oc(c34)c5c67)OC(C)C3OC(c4ccccc4Cl)OC32)C1O (stereo not shown) [Compound No. 58]
P-388 leukemia cells
  response vs control in vivo at 40 mg/kg: 162%
  response vs control in vivo at 80 mg/kg: 216%
[1]
  LD50: ≥ 80 mg/kg

## COC1C(O)C(C)OC(OC2C(Oc3cccc4c(OC(=O)C(C)CNC(=O)OCc5ccccc5)c5c(=O)oc6ccc(C)c7c(=O)oc(c34)c5c67)OC(C)C3OC(c4cccc(F)c4)OC32)C1O (stereo not shown) [Compound No. 60]
P-388 leukemia cells
  response vs control in vivo at 20 mg/kg: 176%
  response vs control in vivo at 40 mg/kg: 210%
[1]
  LD50: ≥ 40 mg/kg

## COC1C(O)C(C)OC(OC2C(Oc3cccc4c(OC(=O)CCNC(=O)CNC(=O)OCc5ccccc5)c5c(=O)oc6ccc(C)c7c(=O)oc(c34)c5c67)OC(C)C3OC(c4cccc(F)c4)OC32)C1O (stereo not shown) [Compound No. 61]
P-388 leukemia cells
  response vs control in vivo at 20 mg/kg: 176%
  response vs control in vivo at 40 mg/kg: 220%
[1]
  LD50: ≥ 40 mg/kg

## COC1C(O)C(C)OC(OC2C(Oc3cccc4c(OC(=O)C5CCCCC5NC(=O)OCc5ccccc5)c5c(=O)oc6ccc(C)c7c(=O)oc(c34)c5c67)OC(C)C3OC(c4ccccc4)OC32)C1O (stereo not shown) [Compound No. 62]
P-388 leukemia cells
  response vs control in vivo at 20 mg/kg: 155%
  response vs control in vivo at 40 mg/kg: 210%
[1]
  LD50: ≥ 40 mg/kg

## COC1C(O)C(C)OC(OC2C(Oc3cccc4c(OC(=O)C(CCSC)NC(=O)OCc5ccccc5)c5c(=O)oc6ccc(C)c7c(=O)oc(c34)c5c67)OC(C)C3OC(C)(C)OC32)C1O (stereo not shown) [Compound No. 63]
P-388 leukemia cells; dose d: 50 mg/kg × 3, i.v. on days 1, 5 and 9
  response vs control in vivo at 50 mg/kg: 150%
P-388 leukemia cells; dose g: 100 mg/kg × 3, i.v. on days 1, 5 and 9
  response vs control in vivo at 100 mg/kg: 205%
[1]
  LD50: ≥ 120 mg/kg
